Where two headings read alike, the source gives them in different places.
Assays:
Caco-2 cells [1] = assay: Bidirectional permeability assay (Caco-2 cells); details: FaSSIF buffer, 120 minutes at 37° C.; for Permeability (Caco-2) Papp A2B: absorptive direction (A2B); for Permeability (Caco-2) Papp B2A: secretory direction (B2A)
Protocol: (§3) Caco-2 cells (Evotec) were seeded at a density of 70,000 cells/well in Millicell® 24-well cell culture insert plates and maintained in an incubator (37° C., 5% CO2, 95% RH) for 21 days with media change on alternate days.
(§4) Stock solutions (10 mM) of the test compounds, atenolol (low permeability marker), propranolol (high permeability marker) and digoxin (substrate for P-gp transport pathway) were prepared in dimethylsulfoxide (DMSO). An intermediate stock solution (1 mM) was prepared by diluting 10 μL of 10 mM master stock solution with 90 μL of neat DMSO. A working stock solution (10 μM) was prepared by diluting 50 μL of 1 mM with 4950 μL of FaSSIF buffer. Post addition of compounds to the FaSSIF, samples were subjected to sonication for 2 hours, and centrifuged at 4000 RPM for 30 minutes at 37° C. The 4 mL of resultant supernatant was directly used in the assay. The final DMSO concentration in the transport experiments was 1%.
(§5) On the day of assay, Caco-2 monolayers were washed twice with transport buffer (HBSS, pH 7.4) and pre-incubated for 30 min (37° C., 5% CO2, 95% RH) in an incubator. The electrical resistance of the monolayers was measured with a Millicell®—ERS system. Monolayers with trans-epithelial electrical resistance (TEER) values greater than 350 ohm·cm^2 were selected for the assay.
(§6) The assay was conducted in absorptive direction (A2B) and secretory (B2A) directions. Transport experiments were initiated by addition of transport assay buffer (FaSSIF buffer prepared in HBSS) consisting of compounds to the donor compartment (apical chamber A-B; basolateral chamber B-A) in duplicate (n=2) wells. Drug free HBSS buffer (pH 7.4) containing 1% bovine serum albumin (BSA) was introduced to the receiver (A-B-basolateral; B-A-Apical) compartments. The volumes of apical and basolateral compartments were 0.4 and 0.8 mL, respectively. After adding dosing solution, plates were incubated in an incubator for 120 minutes at 37° C. After 120 minutes, donor and receiver samples were collected and matrix matched (1:1, 30 μL study sample+30 μL blank buffer) with the opposite buffer. Dosing samples matrix matched (1:1, 30 μL study sample+30 μL blank buffer) with the opposite buffer. Samples were processed by adding acetonitrile containing internal standard (60 μL study sample+200 μL acetonitrile containing internal standard—Tolbutamide, 500 ng/mL). Samples were vortexed and centrifuged at 4000 rpm for 10 minutes. The obtained supernatant (100 μL) was diluted with 100 μL of water and transferred to fresh 96 well plates. The concentration of compounds in the samples was analyzed by liquid chromatography tandem mass spectrometry (LC-MS/MS) method using discovery grade bio-analytical method, as applicable.
(§7) The mean apparent permeability (Papp, ×10^−6 cm/sec) of the test compounds, atenolol, propranolol and digoxin were calculated as follows:

hIBAT = target: T1, hIBAT (Homo sapiens, UniProt Q12908); assay: IBAT (h/m) assay, 3H-taurocholic acid uptake in human IBAT-overexpressing cells; assay type: cell-based; details: 0.25 μM 3H-taurocholic acid and 5 μM cold taurocholic acid, 20 minutes
T1 construct: expressed in transfected cells; kept under Puromycin selection
T1 sequence (Q12908 1-348): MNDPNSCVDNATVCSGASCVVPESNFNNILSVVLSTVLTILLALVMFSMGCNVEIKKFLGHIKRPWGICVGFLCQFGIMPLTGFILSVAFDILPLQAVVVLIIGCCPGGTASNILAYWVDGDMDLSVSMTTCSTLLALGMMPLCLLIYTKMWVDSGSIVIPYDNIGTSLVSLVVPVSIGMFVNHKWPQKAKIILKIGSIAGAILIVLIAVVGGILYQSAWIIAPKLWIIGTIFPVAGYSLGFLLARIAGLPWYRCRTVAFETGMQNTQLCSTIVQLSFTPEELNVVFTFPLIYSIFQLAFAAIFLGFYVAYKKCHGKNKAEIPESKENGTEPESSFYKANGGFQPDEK
Protocol: 10,000 cells (Human or Mouse IBAT-overexpressing cells) were seeded in 96-wells plate (Corning CLS3809) in 200 μL MEM-alpha medium (Gibco 12571-063) supplemented with 10% FBS (Gibco 10438026) containing Puromycin (Gibco A1113803) (10 μg/mL) and incubated at 37° C. in 5% CO2 for 48 hours. After incubation, media was decanted from the wells and cells were washed two times with 300 μL of basal MEM-alpha medium (FBS-free). After decanting basal MEM-alpha medium each time, plates were tapped against paper towel to ensure maximum removal of residual media. Test inhibitor dilutions (highest test concentration being 10 μM, 3-fold serial dilution, 10 points) prepared in DMSO (Sigma D2650) were added in incubation mix (maintaining 0.2% final DMSO concentration) containing 0.25 μM 3H-taurocholic acid (ARC ART-1368) and 5 μM of cold taurocholic acid (Sigma T4009). 50 μL of incubation mix containing test inhibitors was then added to the wells (in duplicate) and the plates were incubated for 20 minutes in a CO2 incubator at 37° C. After incubation, the reaction was stopped by keeping the plates on ice water mix for 2-3 minutes and then the incubation mix was aspirated completely from the wells. The wells were washed two times with 250 μL of chilled unlabelled 1 mM taurocholic acid dissolved in HEPES (Gibco 15630080)-buffered (10 mM) HBSS (Gibco 14175079) (pH 7.4). The plates were tapped against a paper towel after every wash to ensure maximum removal of blocking buffer.
(§1) 100 μL of MicroScint-20 (PerkinElmer 6013621) was added to the wells and kept overnight at room temperature before reading the plates in TopCount NXT™ Microplate Scintillation and Luminescence Counter from PerkinElmer under 3H Test protocol (set at 120 seconds reading time per well).
(§2) All test compounds were provided in powder form at room temperature. 10 mM DMSO stocks of the test compounds were prepared, aliquoted and stored at −20° C. From the 10 mM DMSO stock of the compounds, a 3-fold serial dilution in DMSO was prepared to get a total of 10 dilutions of the test compounds. 0.5 μL of this dilution in DMSO was added to 250 μL of FBS-free basal media containing 3H-taurocholic acid and cold taurocholic acid to prepare the incubation mixture.

[2] = Bidirectional permeability assay (Caco-2 cells); details: human, Caco-2
Protocol: as §3, §4, §5, §6, §7

hLBAT = target: T2, hLBAT (Homo sapiens, UniProt Q14973); assay: LBAT (h/m) assay, 3H-taurocholic acid uptake in human LBAT-overexpressing cells; assay type: cell-based; details: 0.3 μM 3H-taurocholic acid and 7.5 μM cold taurocholic acid, 20 minutes
T2 construct: expressed in transfected cells; kept under Geneticin selection
T2 sequence (Q14973 1-349): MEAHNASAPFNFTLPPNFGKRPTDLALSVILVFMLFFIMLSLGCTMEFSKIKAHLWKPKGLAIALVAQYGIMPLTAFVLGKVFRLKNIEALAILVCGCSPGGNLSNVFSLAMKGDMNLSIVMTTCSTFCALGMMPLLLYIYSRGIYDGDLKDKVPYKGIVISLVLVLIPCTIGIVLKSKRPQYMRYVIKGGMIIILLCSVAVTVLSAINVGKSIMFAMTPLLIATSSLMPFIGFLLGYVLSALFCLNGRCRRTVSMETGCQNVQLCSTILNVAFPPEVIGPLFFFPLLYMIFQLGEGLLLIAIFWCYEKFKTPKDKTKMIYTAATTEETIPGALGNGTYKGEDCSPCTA
Protocol: 20,000 cells (Human or Mouse LBAT-overexpressing cells) were seeded in 96-wells plate (Corning CLS3809) in 100 μL MEM-alpha medium (Gibco 12571-063) supplemented with 10% FBS (Gibco 10438026) containing Geneticin (Gibco 10131-027) (1 mg/mL) and incubated at 37° C. in 5% CO2 for 24 hours. After incubation, media was decanted from the wells and cells were washed two times with 300 μL of basal MEM-alpha medium (FBS-free). After decanting basal MEM-alpha medium each time, plates were tapped against paper towel to ensure maximum removal of residual media. For human LBAT, incubation mix was prepared by adding test inhibitor dilutions (3-fold serial dilution in DMSO (Sigma D2650), 10 points) in MEM-alpha (without FBS) containing 0.3 μM 3H-taurocholic acid (ARC ART-1368) and 7.5 μM cold taurocholic acid (Sigma T4009) (maintaining 0.2% final DMSO concentration). For mouse LBAT, incubation mix was prepared by adding test inhibitor dilutions (3-fold serial dilution in DMSO, 10 points) in MEM-alpha (without FBS) containing 0.3 μM 3H-taurocholic acid and 25 μM cold taurocholic acid maintaining 0.2% final DMSO concentration). 50 μL of incubation mix containing test inhibitors was then added to the wells (in duplicate) and the plates were incubated for 20 minutes in a CO2 incubator at 37° C. After incubation, the reaction was stopped by keeping the plates on ice water mix for 2-3 minutes and then the incubation mix was aspirated completely from the wells. The wells were washed two times with 250 μL of chilled unlabelled 1 mM taurocholic acid dissolved in HEPES (Gibco 15630080)-buffered (10 mM) HBSS (Gibco 14175079) (pH 7.4). The plates were tapped against a paper towel after every wash to ensure maximum removal of blocking buffer.
as §1, with “well, with normal plate orientation).” for “well).”
as §2

Caco-2 cells [3] = test system: Caco-2 cells
Protocol: as §3, §4, §5, §6, §7

[4] = parameters: species or system mice (CD1); details: mouse, in vivo
Protocol: Male mice (C57BL/6 or CD1) or Wistar rats of 8-9 weeks old were used. For each test compound, two groups of 3 animals each were used. One group was administered a single intravenous dose of 1 mg/kg (vehicle 100% DMSO) through the tail vein and the other group was administered a single oral dose of 10 mg/kg through gavage needle. The group that was administered an oral dose was fasted overnight. Blood samples were collected after 0.083, 0.25, 0.5, 1, 2, 4, 6, 8 and 24 hours following intravenous administration, and after 0.25, 0.5, 1, 2, 4, 6, 8 and 24 hours following oral administration. Blood samples were taken from saphenous vein. 0.2% EDTA was used as the anticoagulant. The samples were analyzed by a discovery grade bioanalytical method developed for the estimation of test compound in plasma, using an LC-MS/MS system.

| Compound | Permeability (Caco-2) Papp A2B (Caco-2 cells [1]) [×10⁻⁶ cm/s] | Permeability (Caco-2) Papp B2A (Caco-2 cells [1]) [×10⁻⁶ cm/s] | IC50 (hIBAT) [nM] | Papp A→B at 120 min, 10 µM [2] [×10⁻⁶ cm/s] | Papp B→A at 120 min, 10 µM [2] [×10⁻⁶ cm/s] | IC50 (hLBAT) [nM] | Permeability (Caco-2) Papp A2B (Caco-2 cells [3]) [×10⁻⁶ cm/s] | Permeability (Caco-2) Papp B2A (Caco-2 cells [3]) [×10⁻⁶ cm/s] | Bioavailability (%) [4] |
| --- | --- | --- | --- | --- | --- | --- | --- | --- | --- |
| CCCC[C@@]1(CC)CN(c2ccccc2)c2cc(N(C)C)c(O/C=C/C(=O)O)cc2S(=O)(=O)N1.CCCC[C@]1(CC)CN(c2ccccc2)c2cc(N(C)C)c(O/C=C/C(=O)O)cc2S(=O)(=O)N1 (mixture of isomers) [Example 14, (S)-(E)-3-((3-butyl-7-(dimethylamino)-3-ethyl-1,1-dioxido-5-phenyl-2,3,4,5-tetrahydro-1,2,5-benzothiadiazepin-8-yl)oxy)acrylic acid and (R)-(E)-3-((3-butyl-7-(dimethylamino)-3-ethyl-1,1-dioxido-5-phenyl-2,3,4,5-tetrahydro-1,2,5-benzothiadiazepin-8-yl)oxy)acrylic acid] | 11 | 20 | 6 | – | – | – | – | – | – |
| CCCC1(CC)CN(c2ccccc2)c2cc(SC)c(O/C=C(\F)C(=O)O)cc2S(=O)(=O)C1 (stereo not shown) [Example 12, (Z)-3-((3-ethyl-7-(methylthio)-1,1-dioxido-5-phenyl-3-propyl-2,3,4,5-tetrahydrobenzo-1,5-thiazepin-8-yl)oxy)-2-fluoroacrylic acid] | – | – | 156 | 3.8 | 4.1 | 12 | – | – | – |
| CCCCC1(CC)CN(c2ccccc2)c2cc(N(C)C)c(O/C=C/C(=O)O)cc2S(=O)(=O)N1 (stereo not shown) [Example 13, (E)-3-((3-butyl-7-(dimethylamino)-3-ethyl-1,1-dioxido-5-phenyl-2,3,4,5-tetrahydro-1,2,5-benzothiadiazepin-8-yl)oxy)acrylic acid] | – | – | 13 | 22 | 18 | 1860 | – | – | – |

The next lines start with the values.

| Permeability (Caco-2) Papp A2B (Caco-2 cells [1]) [×10⁻⁶ cm/s] | Permeability (Caco-2) Papp B2A (Caco-2 cells [1]) [×10⁻⁶ cm/s] | IC50 (hIBAT) [nM] | Papp A→B at 120 min, 10 µM [2] [×10⁻⁶ cm/s] | Papp B→A at 120 min, 10 µM [2] [×10⁻⁶ cm/s] | IC50 (hLBAT) [nM] | Permeability (Caco-2) Papp A2B (Caco-2 cells [3]) [×10⁻⁶ cm/s] | Permeability (Caco-2) Papp B2A (Caco-2 cells [3]) [×10⁻⁶ cm/s] | Bioavailability (%) [4] | Compound |
| --- | --- | --- | --- | --- | --- | --- | --- | --- | --- |
| – | – | 5 | 2.3 | 2 | 14 | – | – | – | CCCCC1(CC)CN(c2ccc(F)cc2)c2cc(SC)c(O/C=C(\F)C(=O)O)cc2S(=O)(=O)C1 (stereo not shown) [Example 5, (Z)-3-((3-butyl-3-ethyl-5-(4-fluorophenyl)-7-(methylthio)-1,1-dioxido-2,3,4,5-tetrahydro-1,5-benzothiazepin-8-yl)oxy)-2-fluoroacrylic acid] |
| – | – | 4 | – | – | 113 | 10 | 5.4 | 41 (CD1) % | (S)-(E)-3-((3-butyl-3-ethyl-5-(4-fluorophenyl)-7-(methylthio)-1,1-dioxido-2,3,4,5-tetrahydro-1,5-benzothiazepin-8-yl)oxy)acrylic acid and (R)-(E)-3-((3-butyl-3-ethyl-5-(4-fluorophenyl)-7-(methylthio)-1,1-dioxido-2,3,4,5 tetrahydro-1,5-benzothiazepin-8-yl)oxy)acrylic acid [Example 10] |
| 5.7 | 4.1 | 5 | – | – | 14 | – | – | – | (S)—(Z)-3-((3-butyl-3-ethyl-5-(4-fluorophenyl)-7-(methylthio)-1,1-dioxido-2,3,4,5-tetrahydro-1,5-benzothiazepin-8-yl)oxy)-2-fluoroacrylic acid and (R)—(Z)-3-((3-butyl-3-ethyl-5-(4-fluorophenyl)-7-(methylthio)-1,1-dioxido-2,3,4,5-tetrahydro-1,5-benzothiazepin-8-yl)oxy)-2-fluoroacrylic acid [Example 7] |
| 1.8 | 2.2 | 8 | – | – | 427 | – | – | – | (S)—(Z)-3-((3-butyl-7-(dimethylamino)-3-ethyl-1,1-dioxido-5-phenyl-2,3,4,5-tetrahydro-1,2,5-benzothiadiazepin-8-yl)oxy)-2-fluoroacrylic acid and (R)—(Z)-3-((3-butyl-7-(dimethylamino)-3-ethyl-1,1-dioxido-5-phenyl-2,3,4,5-tetrahydro-1,2,5-benzothiadiazepin-8-yl)oxy)-2-fluoroacrylic acid [Example 3] |

Reference: patent publication US11267794B2, “Benzothia(di)azepine compounds and their use as bile acid modulators” (Albireo AB, priority 2019, dated 2022)
